{"source": "paper PMC6051542", "about": "(MedChemComm, 2017)", "key": {"E. coli BW25113": {"test_system": "E. coli BW25113", "conditions": "wild-type E. coli BW25113; cited from earlier work"}, "E. coli JW5503": {"test_system": "E. coli JW5503", "conditions": "cited from earlier work"}, "[1]": {"test_system": "E. coli JW5503 harboring pCA24N-gyrB", "assay_type": "cell-based"}, "[2]": {"test_system": "E. coli, Edwardsiella tarda, S. enterica enterica Typhimurium, and S. flexneri", "experiment": "MIC against susceptible gram-negative strains", "assay_type": "cell-based", "conditions": "read-out: MICs against susceptible gram-negative strains"}, "[3]": {"biological_target": "DNA gyrase ATPase activity (Escherichia coli, UniProt P0AES4+P0AES6)", "sequence (P0AES4 whole entry, one chain of several)": "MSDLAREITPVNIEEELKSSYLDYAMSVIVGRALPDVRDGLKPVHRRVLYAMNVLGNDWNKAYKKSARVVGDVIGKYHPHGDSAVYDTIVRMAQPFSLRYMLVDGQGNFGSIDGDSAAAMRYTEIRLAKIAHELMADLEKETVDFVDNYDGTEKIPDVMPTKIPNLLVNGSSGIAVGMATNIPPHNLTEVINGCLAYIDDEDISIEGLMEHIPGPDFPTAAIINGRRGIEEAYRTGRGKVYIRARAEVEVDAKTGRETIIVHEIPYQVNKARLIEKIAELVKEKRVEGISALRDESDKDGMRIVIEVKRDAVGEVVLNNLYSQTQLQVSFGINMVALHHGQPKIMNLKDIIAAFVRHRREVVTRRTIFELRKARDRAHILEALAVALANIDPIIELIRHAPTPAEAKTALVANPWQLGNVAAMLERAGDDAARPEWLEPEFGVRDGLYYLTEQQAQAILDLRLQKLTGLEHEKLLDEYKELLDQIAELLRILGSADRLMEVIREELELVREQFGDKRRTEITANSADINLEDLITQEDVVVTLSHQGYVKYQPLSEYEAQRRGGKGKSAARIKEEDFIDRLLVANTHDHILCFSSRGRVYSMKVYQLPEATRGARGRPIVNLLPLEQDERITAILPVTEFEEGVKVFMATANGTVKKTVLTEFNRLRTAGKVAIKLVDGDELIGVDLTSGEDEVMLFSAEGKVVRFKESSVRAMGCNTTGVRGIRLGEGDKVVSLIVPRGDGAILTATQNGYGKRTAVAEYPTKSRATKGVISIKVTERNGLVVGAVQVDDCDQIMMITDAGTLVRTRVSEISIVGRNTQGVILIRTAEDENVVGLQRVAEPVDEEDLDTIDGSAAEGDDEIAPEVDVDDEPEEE", "experiment": "ATPase activity of DNA gyrase", "assay_type": "biochemical, E. coli", "conditions": "up to a concentration of 100 μM"}, "[4]": {"test_system": "E. coli cells, overexpression (gyrA/gyrB) (+/+)", "experiment": "microbe, parasite or virus in culture", "assay_type": "cell-based", "conditions": "Escherichia coli, induction + (IPTG)"}, "[5]": {"test_system": "gyrR strains derived from E. coli JW5503", "experiment": "MIC against the five gyrR strains derived from E. coli JW5503", "assay_type": "cell-based", "conditions": "Escherichia coli, read-out: MIC against gyrR strains"}, "E. coli cells": {"test_system": "E. coli cells", "conditions": "cited from earlier work"}, "gram-positive strains": {"test_system": "gram-positive strains", "experiment": "MIC against all 9 gram-positive strains tested", "assay_type": "cell-based", "conditions": "read-out: MIC values against all 9 gram-positive strains tested"}}, "note": "Read-outs that look alike come from different tables or passages of the source.", "data": [{"smiles": "Cc1ccc(F)cc1S(=O)(=O)N[C@@H]1CCN(Cc2ccc(-c3ccccc3)cc2)C1", "note": "[Compound 8, gyramide C]", "values": [{"measurement": "MIC", "setting": "E. coli BW25113", "result": "> 160", "unit": "µg/mL"}, {"measurement": "MIC", "setting": "E. coli JW5503", "result": 0.1, "unit": "µg/mL"}]}, {"smiles": "CO[C@@H]1[C@@H](OC(N)=O)[C@@H](O)[C@H](Oc2ccc3c(O)c(NC(=O)c4ccc(O)c(CC=C(C)C)c4)c(=O)oc3c2C)OC1(C)C", "note": "[Compound 2, Novobiocin]", "values": [{"measurement": "highest concentration at which cultures grew", "setting": "[1]", "result": 51, "unit": "µg/mL"}]}, {"smiles": "Cc1ccc(C#N)cc1S(=O)(=O)N[C@@H]1CCN(Cc2ccc(-c3ccccc3)cc2)C1", "note": "[Compound 5, (R)-N-(1-([1,1′-biphenyl]-4-ylmethyl)pyrrolidin-3-yl)-5-cyano-2-methylbenzenesulfonamide]", "values": [{"measurement": "MIC", "setting": "[2]", "result": "2 to 16", "unit": "µg/mL"}]}, {"smiles": "O=C(O)c1cn(C2CC2)c2cc(N3CCNCC3)c(F)cc2c1=O", "note": "[Compound 1, Ciprofloxacin]", "values": [{"measurement": "inhibition of ATPase activity", "setting": "[3]", "result": "did not observe a decrease in ATPase activity"}, {"measurement": "MIC", "setting": "[4]", "result": 2, "unit": "ng/mL"}, {"measurement": "MIC", "setting": "[5]", "result": "1.6 to 3.2", "unit": "µg/mL"}, {"measurement": "MIC", "setting": "E. coli cells; E. coli cells before overexpression of DNA gyrase", "result": 9, "unit": "ng/mL"}, {"measurement": "MIC", "setting": "E. coli cells; E. coli cells with overexpression of DNA gyrase", "result": 2, "unit": "ng/mL"}]}, {"smiles": "Cc1ccc(C(F)(F)F)cc1S(=O)(=O)N[C@@H]1CCN(Cc2ccc(OC3CC3)cc2)C1", "note": "[Compound 4, (R)-N-(1-(4-cyclopropoxybenzyl)pyrrolidin-3-yl)-2-methyl-5-(trifluoromethyl)benzenesulfonamide]", "values": [{"measurement": "MIC", "setting": "gram-positive strains", "result": "4 to 16", "unit": "µg/mL"}, {"measurement": "MIC", "setting": "[2]", "result": "2 to 16", "unit": "µg/mL"}]}, {"smiles": "N#Cc1cccc(S(=O)(=O)N[C@@H]2CCN(Cc3ccc(-c4ccccc4)cc3)C2)c1", "note": "[Compound 3, (R)-N-(1-([1,1′-biphenyl]-4-ylmethyl)pyrrolidin-3-yl)-3-cyanobenzenesulfonamide]", "values": [{"measurement": "inhibition of ATPase activity", "setting": "[3]", "result": "did not inhibit the ATPase activity"}, {"measurement": "MIC", "setting": "[2]", "result": "2 to 16", "unit": "µg/mL"}]}]}
